Results: US20250059164A1, “IRAK DEGRADERS AND USES THEREOF” (Kymera Therapeutics, Inc., priority 2023, published 2025)

Experiments:
IRAK4 = biological target: T1, IRAK4 (Homo sapiens, UniProt Q9NWZ3); assay: IRAK4 MSD degradation in OCI-LY10; format: cell-based; conditions: OCI-LY10 cells, 24 hrs, Meso Scale Discovery
T1 construct: endogenous in cells; host or cells: OCI-LY10
T1 sequence (Q9NWZ3 1-460): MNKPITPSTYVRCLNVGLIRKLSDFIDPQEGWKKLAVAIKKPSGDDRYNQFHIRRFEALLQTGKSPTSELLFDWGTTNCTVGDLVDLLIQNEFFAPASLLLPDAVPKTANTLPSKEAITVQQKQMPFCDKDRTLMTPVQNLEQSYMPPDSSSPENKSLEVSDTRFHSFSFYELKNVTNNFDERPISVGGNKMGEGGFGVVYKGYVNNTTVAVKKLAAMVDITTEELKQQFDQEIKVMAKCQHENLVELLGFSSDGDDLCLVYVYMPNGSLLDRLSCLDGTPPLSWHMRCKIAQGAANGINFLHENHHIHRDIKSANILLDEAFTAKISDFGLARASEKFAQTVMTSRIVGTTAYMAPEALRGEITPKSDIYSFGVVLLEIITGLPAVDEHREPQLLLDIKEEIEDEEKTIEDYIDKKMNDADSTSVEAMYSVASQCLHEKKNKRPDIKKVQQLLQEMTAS
Method in brief: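 Remaining IRAK4 protein measured by Meso Scale Discovery electrochemiluminescence sandwich assay on lysates of OCI-LY10 cells. Cells were exposed for 4 to 24 hours (37° C., 5% CO2) to eight 1:3-diluted concentrations starting at 1 to 10 μM. DC50 derived by three-parameter logistic fitting.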

[1] = Rodent pharmacokinetics (rat PK); format: in vivo; conditions: po, dosed intravenously or orally by gavage, plasma, read-out: F % (bioavailability)
Method in brief: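 F % is reported as a letter code: A for ≥5%, B for ≤5%. It was derived from rat plasma profiles after intravenous or oral gavage dosing, with jugular vein sampling from predose to 24 h (5 min point for IV only).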

DC50 (IRAK4) [nM] | bioavailability [1] [%] | Compound
< 10 | ≤ 5 | Cn1c(=O)n(C2CCC(=O)NC2=O)c2cccc(N3CC4(CCN(C[C@H]5CC[C@H](n6cc7cc(NC(=O)c8cccc(C(F)(F)F)c8)ncc7n6)CC5)CC4(F)F)C3)c21 (stereo partly shown) [I-253]
< 10 | ≤ 5 | Cn1c(=O)n(C2CCC(=O)NC2=O)c2cccc([C@@H]3CCN(C[C@H]4CC[C@H](n5cc6cc(NC(=O)c7cncc(C#N)c7)ccc6n5)CC4)C[C@H]3F)c21 (stereo partly shown) [I-129]
< 10 | ≥ 5 | Cn1c(=O)n(C2CCC(=O)NC2=O)c2cccc([C@@H]3CCN(C[C@H]4CC[C@H](c5nc6cc(C(C)(C)O)c(NC(=O)c7ccnc(C(F)(F)F)n7)cc6s5)CC4)C[C@H]3F)c21 (stereo partly shown) [I-170]
< 10 | ≤ 5 | Cn1c(=O)n(C2CCC(=O)NC2=O)c2cccc([C@@H]3CCN(C[C@H]4CC[C@H](n5cc6cc(NC(=O)c7cncc(C(F)(F)F)n7)c(C(C)(C)O)cc6n5)CC4)C[C@H]3F)c21 (stereo partly shown) [I-171]
< 10 | ≤ 5 | COc1cc2nn([C@H]3CC[C@H](CN4CCC5(CN(c6cccc7c6n(C)c(=O)n7C6CCC(=O)NC6=O)C5)C(F)(F)C4)CC3)cc2cc1NC(=O)c1cncc(C#N)c1 (stereo partly shown) [I-247]
> 200 | ≤ 5 | Cn1c(=O)n(C2CCC(=O)NC2=O)c2cccc([C@@H]3CCN(C[C@H]4CC[C@H](n5cc6cc(NC(=O)c7nccc(C(F)(F)F)n7)ccc6n5)CC4)C[C@H]3F)c21 (stereo partly shown) [I-195]
< 10 | ≤ 5 | Cn1c(=O)n(C2CCC(=O)NC2=O)c2ccc(F)c([C@H]3CCN(C[C@H]4CC[C@H](n5cc6cc(NC(=O)c7cncc(C#N)c7)c(C(C)(C)O)cc6n5)CC4)CC3(F)F)c21 (single isomer, unassigned) [I-383]
< 10 | ≤ 5 | Cn1c(=O)n(C2CCC(=O)NC2=O)c2cccc(N3CC4(CCN(C[C@H]5CC[C@H](n6cc7cc(NC(=O)c8cncc(C(F)(F)F)c8)c(C(C)(C)O)cc7n6)CC5)CC4(F)F)C3)c21 (stereo partly shown) [I-373]
10 to 100 | ≤ 5 | Cn1c(=O)n(C2CCC(=O)NC2=O)c2cccc([C@@H]3CCN(C[C@H]4CC[C@H](n5cc6cc(NC(=O)c7cccc(C(F)(F)F)n7)c(N7CCN(C8CC8)CC7)cc6n5)CC4)C[C@H]3F)c21 (stereo partly shown) [I-107]
< 10 | ≤ 5 | COc1cc2nn([C@H]3CC[C@H](CN4CC[C@@H](c5cccc6c5n(C)c(=O)n6C5CCC(=O)NC5=O)[C@H](F)C4)CC3)cc2cc1NC(=O)c1cncc(C(F)F)c1 (stereo partly shown) [I-271]
10 to 100 | ≥ 5 | CN(C[C@H]1CC[C@H](c2nc3cc(C(C)(C)O)c(NC(=O)c4cccc(C(F)(F)F)c4)cc3s2)CC1)[C@H]1CCN(c2cccc3c2n(C)c(=O)n3C2CCC(=O)NC2=O)C[C@H]1F (single isomer, unassigned) [I-199]
